Reference: patent publication US7279497B2, “Benzopyran derivatives substituted with secondary amines including imidazole, their preparation and pharmaceutical compositions containing them” (Korea Research Institute of Chemical Technology, priority 2002, dated 2007)
Several values for one entry are separate records, joined by “and”; a condition that tells them apart may be missing. Equal entries are not always repeated.

Tests used:
isolated rat hearts = experiment: Cardioprotective activity in isolated ischemic rat heart (Langendorff); details: 10 μM
Protocol: In order to determine whether the compounds of the chemical formula 1 are protective for ischemic hearts in vitro, experiments determining the anti-ischemic effects of the compounds on isolated rat hearts were conducted as follows.
For all in vitro studies, isolated rat hearts were used according to the published methods after some modification [HJ Ring, Arzneim.-Forsch./Drug Res. 39 (II), 1535 (1989): T. Krzeminski, et al., J. Pharmacological Methods, 25, 95, (1991)]
Male Sprague-Dawley rats weighing 300-450 g were anesthetized with sodium pentobarbital (100 mg/kg, i.p.). The tail vein was injected with heparin (1,000 U/kg) and then the trachea was intubated. While rats were mechanically ventilated with a rodent ventilator (Model 7025, Ugobasile, Italy), their hearts were perfused in situ with oxygenated modified Krebs-Henseleit bicarbonate buffer (described herein) by retrograde aortic cannulation. The hearts were then excised and moved to a Langendorff apparatus (H.S.E., Germany), where they were perfused with oxygenated modified Krebs-Henseleit bicarbonate buffer containing (in mM) NaCl 116, NaHCO3 24.9, KCl 4.7, MgSO4 1.1, KH2PO4 1.17, CaCl2 2.52, glucose 8.32 and pyruvate 2.0 at a constant perfusion pressure (85 mm Hg). A latex balloon filled with solvent (ethanol:water=1:1 (v/v)) and attached to a metal cannula was placed in the left ventricle through pulmonary vein and connected to a Isotec pressure transducer (H.S.E., Germany) for measurement of left ventricular pressure (LVP). The hearts were allowed to equilibrate for 15 min, at which time left ventricular end-diastolic pressure (EDP) was adjusted to 5 mm Hg and this balloon volume was maintained throughout the experiment. Then, baseline contractile function, heart rate (HR), and coronary flow (CF) (extracorporeal electromagnetic flow probe, Narco Bio-System, U.S.A.) were measured. Cardiac contractile function was calculated by subtracting LVEDP from LV peak systolic pressure (LVSP), yielding developed pressure (LVDP). Double product (DP), another important parameter for assessing cardiac performance, was calculated by multiplying HR by LVDP. Throughout the experiment, all these parameters were measured, and calculated before and 10 min after pretreatment with each compound and 30 min after the onset of reperfusion with buffer. Data on reperfusion DP were further expressed as the percentage to pretreatment DP.
After stabilization for 15 min, the hearts were pretreated for 10 min with respective drugs (10 μM, 0.04% DMSO) or vehicle (0.04% DMSO) before onset of global ischemia; test agents were administered directly into the oxygenator of the Langendorff apparatus immediately above the aortic root in a retrograde fashion as solutions in the perfusate. We then rendered the hearts globally ischemic by completely shutting off the perfusate for 30 min. Severity of ischemia was determined as the time to contracture (TTC, min) during global ischemia in which the first 5 mmHg increase in EDP was observed. Then, the hearts were reperfused and, 30 min later, contractile function (LVDP, DP) and cumulative reperfusion lactate dehydrogenase (LDH) release were measured. LDH was measured as a sensitive index for loss of cell viability with a kit supplied by Boerhinger Mannheim based on the technique of Wroblewski and LaDue [F. Wroblewski and J S. La Due, Proc Soc Exp Biol Med 90, 210, (1955)].

isolated rat aorta = experiment: Vasorelaxation effects on isolated blood vessels (methoxamine induced vasoconstriction)
Protocol: The following experiment was conducted to examine whether the compounds of the formula 1 have vasorelaxation effects.
Male Sprague-Dawly rats (350-450 g, obtained from the Experimental Animal Team of the Korea Research Institute of Chemical Technology) were knocked unconscious by hitting the occipital region, sacrificed by cervical dislocation, and underwent thoracotomy. After being quickly removed, the thoracic aorta was deprived of the adipose tissue and cut into aortic rings of 3 mm width. The aorta was lightly rubbed with a modified Krebs Henseleit buffer (Physiological Salt Solution, PSS) soaked cotton club to remove the inner epithelial layer therefrom. While being suspended in an organ bath containing a physiological buffer, the vascular tissue was allowed to equilibrate under a resting tension of 2 g and then, stand for 1 hour at 37° C. for stabilization with a supply of a carbogen consisting of 95% O2-5% CO2.
Thereafter, the vascular tissue was constricted with 10^−5 M phenylephrine and washed several times with PSS and this procedure was repeated again to ensure the stable reactivity of vascular smooth muscle to repetitive constriction/dilatation.
In addition, 3×10^−6 M methoxamine was used to induce an intensive constriction in the vascular smooth muscle. When the vasoconstriction induced by the methoxamine reached and maintained a maximum, test compounds and controls were cumulatively added to the organ baths in concentrations of 1, 3, 10 and 30 μM so as to induce vasodilatation. Cromakalim, BMS-180448, and BMS-191095 were used as the controls.
Following the addition of test compounds, the change in the maximal constriction induced by methoxamine was calculated to plot a concentration-relaxation response curve. Through a linear regression analysis, IC50, the drug concentration at which the vascular tissue is 50% dilated, was obtained for each compound.

[1] = system: blood vessel formation in Matrigel plugs; experiment: In vivo mouse matrigel plug assay (hemoglobin content of plug); parameters: species or system C57BL/6 mice
Protocol: Antiangiogenic activities in vivo of the compounds of the formula 1 were determined by mouse matrigel plug assay.
The mixture of Matrigel, heparin (30 units), and bFGF (25 ng) were injected subcutaneously into C57BL/6 mice. The test compounds were injected subcutaneously at 2.2 mg/mL with matrigel, or administrated orally at 2 mg/day (twice a day, each 1 mg) during 4 days (total 8 mg/mouse). After 4-7 days, the skin of the mouse was pulled back, and matrigel plug was excised. The hemoglobin contents inside the Matrigel plugs were measured using the Drabkin method and Drabkin reagent (kit 525, Sigma) for the quantitation of blood vessel formation.

Compound: COC(OC)[C@@]1(C)Oc2ccc([N+](=O)[O-])cc2[C@@H](N(Cc2ncc[nH]2)c2ccc(Cl)cc2)[C@@H]1O [Example 1, (2S,3S,4R)-3,4-dihydro-2-dimethoxymethyl-3-hydroxy-2-methyl-6-nitro-4-[N-(4-chlorophenyl)-N-(1H-imidazol-2-ylmethyl)amino]-2H-1-benzopyran]
- LDVP × HR (%) (isolated rat hearts; 30 min reperfusion, % of pretreatment DP): 55.7%
- TTC (time to contracture) (isolated rat hearts; global ischemia): 28 min and 28.0 min
- EDP (isolated rat hearts; reperfusion): 24.0 MmHg
- LDH (reperfusion release) (isolated rat hearts; reperfusion): 10.7 U/g
- IC50 (isolated rat aorta; rat aorta constricted with methoxamine (3 μM)): 9.83 µM
- vasorelaxant potency lower than BMS-180448 (isolated rat aorta; ratio of IC50): 7 times
- % Inhibition (hemoglobin quantity) ([1]; S. C, 2.2 mg/mL with matrigel): 79%
- % Inhibition (hemoglobin quantity) ([1]; oral, 2 mg/day during 4 days): 94%
